Test results as given in US9047904B2, “Magnetic recording medium” (priority 2009, dated 2015).

Conditions: 50 mg in 20 mL water + 30 mL tetrahydrofuran; titrated with 0.1N NaOH; pH at half of the neutralization titration quantity
Experimental: In the present invention, the term “acid strength” refers to a value that is measured by the following method.
A 50 mg sample of organic acid A or B is dissolved in a mixed solution of 20 mL of water and 30 mL of tetrahydrofuran. Titration to neutral is conducted using a model GT-100 Win automatic titrator made by Mitsubishi Chemical Analytech with 0.1N NaOH (Wako Pure Chemical Industries). The pH corresponding to half of the titration quantity that is added dropwise to attain the neutralization point is read, and that pH is adopted as the acid strength.
<Acid Strength of Organic Acids A and B>
A 50 mg sample of organic acid A or B was dissolved in a mixed solution of 20 mL of water and 30 mL of tetrahydrofuran. Titration to neutral was conducted with 0.1N NaOH (Wako Pure Chemical Industries) using a model GT-100 Win automatic titrator made by Mitsubishi Chemical Analytech. The pH corresponding to half of the titration quantity that was added dropwise to attain the neutralization point was read, and that pH was adopted as the acid strength.

Compound	pKa(B) (acid strength of organic acid B)	pKa(A) (acid strength of organic acid A)
O=C(O)CC(O)(CC(=O)O)C(=O)O [Citric acid, citric acid]	5.84	
Phenyl phosphate		4.01
